{"source": "patent US5447915A", "about": "“Terminally blocked antiviral peptides” (priority 1992, dated 1995)", "key": {"[1]": {"target": "T1, human immunodeficiency virus (HIV-1) glycoprotein gp120 (Human immunodeficiency virus type 1 group M subtype B, UniProt P03375)", "T1 construct": "a solution of gp120 (20 μg/ml) (synthesized in vitro from baculovirus and obtained from MicroGeneSys); purchased MicroGeneSys, West Haven, Conn; host or cells: gp120 from baculovirus expression; CD4 on HSBCD4-M.23 cells (HSB-2 clone transfected with CD4 cDNA)", "type": "binding", "settings": "HSBCD4-M.23 cells; for inhibition of gp120 binding to CD4 (corrected mean fluorescence of CD4-expressing cells): gp120 preincubated with peptide 1 hour 37° C., about 50 μM to 900 μM", "procedure": "The peptides prepared as described in Example 1 were characterized as to their ability to bind to the human immunodeficiency virus (HIV-1) glycoprotein gp120. This ability was assayed on the basis of the peptides ability to inhibit binding of gp120 to the human CD4 protein.\nOn the day of the assay the peptides were diluted 10-fold in phosphate buffered saline (PBS) and 2-fold serial dilutions made into PBS previously adjusted to the same DMSO concentration (10%). 25 μl each of each peptide solution and a solution of gp120 (20 μg/ml) (synthesized in vitro from baculovirus and obtained from MicroGeneSys, West Haven, Conn.) were combined and incubated at 37° C. for 1 hour. A total of 3-5×10^5 HSBCD4-M.23 cells [derived from a clone of the pre-T cell leukemia line HSB-2 (obtained from the American Type Culture Collection (ATCC), Rockville, Md.) which expresses human CD4 as a result of transfaction of CD4 cDNA sequences; Diamond et al., Proc. Natl. Acad. Sci. 87: xxxx (1990)] were pelleted in the walls of a 96-well V-bottom microtiter plate, resuspended with the preincubated gp 120-peptide mixture and allowed to incubate at 4° C. for 1 hour. The cells were then pelleted and resuspended in 50μl of a solution containing rabbit anti-gp120 antibody (diluted 1:400 in PBS; MicroGeneSys, West Haven, Conn.) and incubated at 4° C. for 30 min. The cells were again pelleted, washed with 100 μl PBS and resuspended in 50μl of a solution containing fluorescein isothiocyanate (FITC)-conjugated goat anti-rabbit antibody (diluted 1:20; Tago) and incubated at 4° C. for 30 min. The cells were pelleted and washed as before, and resuspended in 100 μl of a solution containing propidium iodine at a concentration of 25 μg/ml and transferred to tubes containing 400 μl PBS for flow cytometric analysis on an Epics V (Coulter) for FAtScan (Betton-Dickinson,Mountainview, Calif.). Cells were gated on propidium iodide to exclude dead cells. Green fluorescence was collected on the linear amplifier and the mean fluorescence calculated."}, "HIV": {"system": "HIV", "test": "Inhibition of HIV infection of CD4-expressing human peripheral blood lymphocytes, p24 antigen", "type": "cell-based", "settings": "peptide 160 μg/ml; human T cells from PBL", "protocol": "These cells were obtained by depleting peripheral blood mononuclear cells isolated by passage through nylon wool [Finberg et al., Science 249: 287-291 (1990)]using antibodies specific for CD8 (OKTS, obtained from ATCC) and CD16 (B73.1, a gift of G. Trinchieri) followed by treatment with antibody-coated magnetic beads [Haregerwoin et al., Nature 340: 309 (1989)]. This treatment enriches the cell population for CD4-expressing human peripheral T cells. Virus was incubated for 1 hour at 37° C. with varying concentrations of CPF(DD), or with CPF(6F) at a concentration of 160 μg/ml. The treated virus preparation was then incubated with cells for 1 hour at 37° C. Cells were washed twice and maintained in RPMI 1640/10% FCS supplemented with interleukin 2 [10 units/ml, Collaborative Research]. Cells were maintained and assayed for p24 production as described above."}, "[2]": {"system": "conjugate formation between HBSCD4-M.23 cells and Daudi cells", "settings": "peptide 100 μg/ml, gp120 20 μg/ml", "protocol": "Conjugate formation was assayed using HBSCD4-M.23 cells and cells from the human MHC-expressing cell line Daudi (available from ATCC). The HBSCD4-M.23 cells were labeled with 0.5 μg/ml sulfofluorescein diacetate (Molecular Probes, Eugene, Oreg.) and the Daudi cells were labeled with 40 ng/ml hydroethidine (Polysciences, Warrington, Pa.) and mixed at a 1:2 ratio (HBSCD4-M.23:Daudi) at a total concentration of 1×10^6 cells/mi. Cells were then incubated in 30 μl RPMI 1640 media at 37° C. for at least 90 minutes in the presence or absence of CPF(DD) or CPF(δF) (at concentrations of 100 μg/ml) and gp120 (20 μg/ml). At the end of the incubation, the cells were gently resuspended to preserve conjugates and scored by fluorescence microscopy. Positive conjugates were scored as at least two cells displaying one fluorescent color bound to at least one cell displaying the other fluorescent color. Samples were analyzed blinded as to their identity, and in duplicate, and at least three counts of 100 fluorescein-labeled cells were performed for each sample. The percentage of conjugates scored was calculated as the total number of conjugates scored divided by the total number of conjugates plus free CD4-expressing (fluorescein-labeled) cells."}, "HIV-1": {"system": "HIV-1", "settings": "peptide 80 μg/ml; after 4 days of co-cultivation for CPF(DD)", "protocol": "PBL-derived human T cells, infected with HIV-1, were washed extensively with RPMI 1640 media and then 10^4 infected T cells were added to 5×10^5 uninfected H9 cells in the presence or absence of CPF(DD) or CPF(δF) at concentrations of 80 μg/ml. Cells were co-cultivated and maintained at H9 cell densities of 5×10^5 cells/ml and tested after 2, .varies.and 6 days of co-cultivation. The extent of infection of H9 cells was determined by p24 antigen ELISA assay, performed 48 hours after washing the T-cell-H-9 cell mixture free of virus."}, "[3]": {"system": "IL-2 production in 16CD4-9 T cell hybridoma cells", "settings": "peptide 200 μg/ml, gp120 5-10 μg/ml, diluted 20-fold and reconcentrated by ultrafiltration", "protocol": "These gp120 solutions were then diluted 20-fold with PBS and the gp120 reconcentrated by ultrafiltration as described in Example 2. The recovered gp120 solutions were then combined with 1×10^5 16CD4-9 T cell hybridoma cells (available from ATCC) and 2×10^5 Daudi cells and cultured overnight at 37° C. IL-2 was detected in the culture supernatants using a cell proliferation assay [Watson, J. Exp. Med. 150: 1510-1515 (1979)], with the modification that proliferation was detected colorimetrically as the cleavage of 3-(4,5-dimethyl-thiazol)-2,6-diphenyl-tetrazolium bromide (MTT) [Finberg et al., Science 249: 287-291 (1990)]."}}, "note": "Non-standard residues stand in square brackets, D forms with d. Residues, ends and D or L forms follow the SMILES beside them. *: point of attachment. OBn = c1ccc(CO*)cc1", "data": [{"compound": "O=C(N[C@H](Cc1ccccc1)C(=O)OCc1ccccc1)[C@H]1CCCN1", "note": "[(DD) prolylphenylalanylbenzylester] (H-[dP]-[dF]-OBn)", "values": [{"measurement": "inhibition of gp120 binding to CD4 (corrected mean fluorescence of CD4-expressing cells)", "setting": "[1]", "value": "unable to inhibit gp120 binding"}]}, {"compound": "COC(=O)C(=O)N1CCC[C@@H]1C(=O)OCc1ccccc1", "note": "[CPF(δF), N-carbomethoxylcarbonyl-D-Pro-OBn]", "values": [{"measurement": "kinetics and maximum production of p24", "setting": "HIV", "value": "does not effect either the kinetics or the maximum production of p24"}, {"measurement": "conjugate formation in presence of gp120 preincubated with peptide", "setting": "[2]", "value": "does not restrict gp120-mediated inhibition of conjugate formation"}, {"measurement": "inhibition of gp120 binding to CD4 (corrected mean fluorescence of CD4-expressing cells)", "setting": "[1]", "value": "does not inhibit gp120 binding to CD4-expressing human cells"}, {"measurement": "p24 antigen in supernatant after co-cultivation of infected T cells and uninfected H9 cells", "setting": "HIV-1", "value": "no different from those detected in co-cultures of T cells and H9 cells incubated without peptides"}, {"measurement": "IL-2 production in presence of gp120 preincubated with peptide", "setting": "[3]", "value": "slight increase in the amount of IL-2"}]}, {"compound": "COC(=O)C(=O)N[C@H](Cc1ccccc1)C(=O)OCc1ccccc1", "note": "[CPF(δP), N-carbomethoxylcarbonyl-D-Phe-OBn]", "values": [{"measurement": "inhibition of gp120 binding to CD4 (corrected mean fluorescence of CD4-expressing cells)", "setting": "[1]", "value": "does not inhibit gp120 binding to CD4-expressing human cells"}]}, {"compound": "N-carbomethoxylcarbonyl-D-Pro-D-Ala-OBn [CPF(F→A)]", "values": [{"measurement": "concentration giving 50% inhibition of gp120 binding, fold higher than for CPF(LL)", "setting": "[1]; in comparison with CPF(LL)", "value": "2-5 fold"}]}]}
